Assay results as given in PMC10799935, “Discovery of a peripheral 5HT2A antagonist as a clinical candidate for metabolic dysfunction-associated steatohepatitis” (Nature Communications, 2024).
“Also recorded” adds a separate entry of the source.

Legend:
[1] = biological target: T1, 5HT2A (Homo sapiens, UniProt P28223); test: Human 5HT2A inhibition assay (FLIPR calcium 6, 5HT stimulus, stably transfected HEK293 cells); format: cell-based; design: expressed in transfected cells; host or cells: HEK293; conditions: HEK293, 10 μM; read-out: % Inhibition at 10 μM (SD)
T1 sequence (P28223 whole entry): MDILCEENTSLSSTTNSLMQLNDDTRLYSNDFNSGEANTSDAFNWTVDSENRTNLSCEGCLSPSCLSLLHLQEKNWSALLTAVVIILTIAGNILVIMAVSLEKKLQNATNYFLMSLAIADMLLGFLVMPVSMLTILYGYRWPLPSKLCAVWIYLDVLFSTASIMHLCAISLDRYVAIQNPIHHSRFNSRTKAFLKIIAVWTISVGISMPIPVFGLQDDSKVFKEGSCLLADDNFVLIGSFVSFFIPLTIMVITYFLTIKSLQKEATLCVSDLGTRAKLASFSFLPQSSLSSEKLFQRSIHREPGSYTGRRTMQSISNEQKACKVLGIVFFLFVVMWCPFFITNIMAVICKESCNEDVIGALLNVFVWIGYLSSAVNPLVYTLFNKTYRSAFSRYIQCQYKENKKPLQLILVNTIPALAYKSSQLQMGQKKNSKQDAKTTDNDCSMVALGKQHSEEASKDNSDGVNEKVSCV

[2] = system: STZ+HFD mice; test: STZ+HFD mice (modified STAM) NASH and liver fibrosis model; format: in vivo, mouse; conditions: 11c 5 or 10 mg/kg, OCA 10 mg/kg
Description: Mice were intraperitoneally injected with low-dose streptozotocin (40 mg/kg; 5 times) in 7-week-old mice. After injection with STZ, mice were fed an HFD for 16 weeks to induce NASH and liver fibrosis. After 16 weeks of an HFD, mice were fed a standard chow diet to mimic the NASH patient under […]
nine weeks by oral gavage (Reviewer-only data 4). […]
inflammation, hepatocyte ballooning, and total NAFLD activity score by the NASH CRN histological scoring system (Reviewer-only data 4B, C). […]
hepatic fibrosis stage similar to STZ+HFD mice treated with OCA (Reveiwer-only data 4D, E). STZ+HFD mice […]
function (Reviwer-only data 4F). […]
group (Reviewer-only data 4G). Furthermore, the expression of genes related to lipogenesis and fibrosis was reduced in the compound 11c-treated group in a dose-dependent manner (Reviewer-only data 4H, I). These […]
Reviewer-only Data 4. Compound 11c treatment with dietary modification ameliorates NASH and liver fibrosis in a dose-dependent manner. (A) Experimental scheme for in vivo efficacy of compound 11c in […]
(STZ+HFD mice. (B-I) STZ+HFD mice fed HFD for 16 weeks were switched to SCD for 9 weeks and were treated with vehicle, compound 11c, or OCA by daily oral gavage. (B) Representative liver histology by H&E staining […]
mg/kg. Scale bars, 100µm. […]
mice; n = 9 per group. (D) Representative liver histology by Masson’s trichrome staining from vehicle, […]
Scale bars, 100µm. (E) Fibrosis stage
(F) Serum AST and ALT levels; n = 9 per […]
group. (G) Serum TG levels and hepatic TG levels; n = 9 per group. (H) Relative mRNA expression of lipogenesis-related genes as assessed by qRT-PCR in the liver; n = 9 per group. (I) Relative mRNA expression of fibrosis-related genes as assessed by qRT-PCR in the liver; n = 9 per group. Data are expressed as the means ±SEM.
[…], **P<0.01, one-way ANOVA with post hoc Tukey’s test (C, E, F, G, H, I). […]
Representative liver histology by Masson’s trichrome staining and Sirius Red staining. Scale bars, 100µm. (E) […]
one-way ANOVA with post hoc Tukey’s test (C, E).
Comment 2: In "Methods", the author claims to use HEK293 cells (a type of cell derived from kidney embryos) for cell research, however, the data in Table 5 are the results of hepatocyte experiments. What happened? Response: We appreciate the Reviewer’s comment. HEK293 cells were used for inhibition assay (cell research), shown in Table 1-3 of the main manuscript, while, hepatic cell lines were used for chemical profiling and for “Hepatocyte stability” test, shown in Table 5 of the main manuscript. The “Selectivity” of Compound 11c for different 5HT subtypes is elucidated in response to Comment 6.
We have modified the Methods section to provide clarity.

[3] = Liver microsomal stability, rat; format: in vitro ADME
From the text: (§1) Based on the structure and activity of the two series above, we replaced the alcohol with –CH2.

[4] = biological target: T1, 5HT2A; test: Human 5HT2A inhibition assay (FLIPR calcium 6, 5HT stimulus, stably transfected HEK293 cells); format: cell-based; design: expressed in transfected cells; host or cells: HEK293; conditions: for inhibition at 1 µM: HEK293, 1 μM, read-out: % Inhibition at 1 μM (SD)
Description: The derivatives were evaluated at a concentration of 1 μM for their antagonist activity on the 5HT2A receptor (Tables 1–3)[33],[34]. […] The cells were stained with 100 μL of cytosolic calcium dye using the FLIPR calcium 6 assay solution (Molecular devices, #R8190) supplemented with 2.5 mM probenecid (Sigma; P8761) and incubated for 1 h at 37 °C. After 1 h, the designated amount of the compound was treated in each well and incubated for another 1 h at 37 °C. […] Experimental conditions for the 5HT subtypes can be found in the Supporting Information (Supplementary Table 1).

[5] = Liver microsomal stability (species not stated); format: in vitro ADME
[6] = Liver microsomal stability, human; format: in vitro ADME
From the text: as §1

For CC(C)NC(=S)N1CCC(=C2c3ccc(Cl)cc3CCc3cccnc32)CC1 [Compound 5], the inhibition at 10 µM [1] was 8%.

Compound CC(=O)N1CCC(=C2c3ccc(Cl)cc3CCc3cccnc32)CC1 [Compound 3] has an inhibition at 10 µM [1] of -1%.

For CC[C@H]1[C@@H](O)[C@@H]2[C@H](CC[C@]3(C)[C@@H]([C@H](C)CCC(=O)O)CC[C@@H]23)[C@@]2(C)CC[C@@H](O)C[C@@H]12 [OCA, Obeticholic acid, reference compound], the hepatic fibrosis stage [2] was “improvement”.

In the case of Cc1nc2n(c(=O)c1CCN1CCC(=C3c4ccc(Cl)cc4CCc4cccnc43)CC1)CCCC2 [Compound 11b], the “metabolic stability in the liver microsome (% after 30 min incubation)” value [3] is reported as 11.7%, the IC50 [4] is reported as 14 nM and the inhibition at 1 µM [4] is reported as 92.63 ± 0.6%. For the same compound, the “liver microsomal stability (in words)” value [5] was “metabolically unstable; also recorded: rapidly metabolized in the liver microsome” and the “metabolic stability in the liver microsome (% after 30 min incubation)” value [6] was 17.3%.

With O=c1[nH]c2ccccc2c(=O)n1CCN1CCC(=C2c3ccc(Cl)cc3CCc3cccnc32)CC1 [Compound 11d] the “metabolic stability in the liver microsome (% after 30 min incubation)” value [3] was 0.50%, the IC50 [4] was 47 nM and the “IC50 (nM)” value [4] was “lower in vitro activity than 11c”. For the same compound, the “% Inhibition at 1 μM (SD)” value ([4]; 1 μM) was 102 ± 0.03%, the “liver microsomal stability (in words)” value [5] was “metabolically unstable; also recorded: low liver microsomal stability” and the “metabolic stability in the liver microsome (% after 30 min incubation)” value [6] was 5.33%.

Compound CN1CCC(=C2c3ccc(Cl)cc3CCc3cccnc32)CC1 [Compound 6] has an IC50 [4] of 119 nM, an inhibition at 1 µM [4] of 90 ± 0.62% and an inhibition at 10 µM [1] of 95 ± 0.31%.
